According to patent US5602176A, “Phenyl carbamate” (priority 1987, dated 1997):

How the values were obtained:
[1] = system: rat hippocampal slices (indirect method for acetylcholinesterase (AChE) inhibition); experiment: Electrically evoked 3H-acetylcholine release from rat hippocampal slices; type: cell-based
Description: Electrically evoked ^3 H-acetylcholine release from rat hippocampal slices
Electrically evoked ^3 H-acetylcholine (^3 H-ACh) release from rat hippocampal slices is a functional in vitro model to investigate presynaptic muscarinic autoreceptor agonists and antagonists. This model can also be used as an indirect method to evaluate drugs which inhibit acetylcholinesterase (AChE). Inhibition of AChE activity leads to the accumulation of endogenous ACh which then interacts with presynaptic muscarinic autoreceptors and inhibits further release of ^3 H-ACh.
Rat hippocampal slices (Wistar strain, 180-200 g) are prepared by chopping into cross sections whole hippocampal slices at a distance of 0.3 mm with a McIlwain tissue chopper. Hippocampal slices obtained from 3 rats are incubated for 30 min. at 23° C. in 6 ml Krebs-Ringer containing 0.1 uCi ^3 H-choline and transferred into the superfusion chamber and superfused with Kreb's medium containing 10 μM hemicholinium-3 at a rate of 1.2 ml/min. at 30° C. Collection of 5 min. fractions of the superfusate begins after 60 min. of superfusion. Two periods of electrical stimulation (2 Hz rectangular pulses 2 msec, 10 mA, 2 min.) are applied after 70 min. (S1) and after 125 min. (S2) of superfusion. […] At the end of the experiments the slices are solubilized in conc. formic acid and tritium content is determined in the superfusate and the solubilized slices. Tritium outflow is expressed as the fractional rate of tritium outflow per min. Electrically evoked tritium outflow is calculated by subtraction of the extrapolated basal tritium outflow from the total tritium outflow during the two min. of electrical stimulation and the following 13 min. and is expressed as percent of the tritium content at the beginning of the sample collection. Drug effects on stimulation evoked tritium outflow are expressed as the ratios S2 /S1. All experiments are run in dublicates using a programmable 12 channel superfusion system. For the calculation a computer program is used.

[2] = biological target: T1, AChE preparations of different rat brain regions (Rattus norvegicus, UniProt P37136); experiment: Acetylcholinesterase inhibition in different rat brain regions (in vitro, Ellman); type: biochemical; conditions: table 1
T1 construct: Rat brain tissue is homogenized in cold phosphate buffer pH 7.3; from tissue; host or cells: rat brain (cortex, hippocampus, striatum), supernatant of Triton X-100 homogenate
Description: Acetylcholinesterase inhibition in different rat brain regions
AChE preparations of different rat brain regions (Cortex, hippocampus and striatum) are used in this test and the IC50 (inhibitory concentrations in μM) are determined. The enzyme preparations are preincubated with the inhibitor 15 minutes before the determination.
The AChE activity is measured according to the method described by Ellman (Arch. Biochem. Biophys. 82, 70, 1959). Rat brain tissue is homogenized in cold phosphate buffer pH 7.3 (0.25 mM) containing 0.1% of Triton X-100. After centrifugation aliquots of the clear supernatant is used as enzyme source. The enzyme is preincubated with different concentrations of the inhibitor. After different times, substrate (acetylthiocholinjodide 0.5 mM) is added and the remaining activity determined.

[3] = system: dopamine metabolism in striatum; experiment: Influence on dopamine metabolism; type: in vivo, rat; conditions: following administration
Description: Influence on dopamine metabolism
Male OFA rats (150-200 g) were used both for acute and subchronic experiments. The animals are maintained under 12 hour periods of light and dark. The animals are sacrificed always between 11.00 and 13.00 h. The brains are excised immediately, dissected on ice according to the method of GLOWINSKI and IVERSEN, J. Neurochem. 13, 655 (1966), frozen on dry ice and the tissue samples stored at -80° C. until analysis.
Dopamine and its metabolites DOPAC (3,4-dihydroxyphenylacetic acid) and HVA (homovanillic acid) are determined in brain tissue extracts which are obtained by homogenisation of the stored brain tissue samples in 0.1N HCl containing 0.05 mM ascorbic acid and subsequent centrifugation. Striatal and cortical tissues are used.
The determination of the metabolites is performed using either the gas chromatography/mass fragmentography (GCMS) technique as described by KAROUM et al., J. Neurochem. 25, 653 (1975) and CATABENI et al., Science 178, 166 (1972) or the fluorometric method as described by […] and MAITRE, Analyt. Biochem. 51, 474 (1973). For the GCMS method, tissue extracts are prepared by adding known amounts of deuterated monoamines and their respective metabolites as internal standards.

[4] = system: deoxyglucose (DOG) utilisation in the brain; experiment: Muscarinic and nicotinic effects on brain glucose utilisation (deoxyglucose autoradiography); type: in vivo, rat; conditions: 7.5 μmol/kg p.o.
Description: Muscarinic and nicotinic effects on brain glucose utilisation
Changes in the functional activity of the CNS are associated with altered deoxyglucose (DOG) utilisation in the brain which can be visualised simultaneously in several brain regions using the autoradiographic method of Sokoloff et al., J. Neurochem. 28, 897 (1977). The administration of cholinergic drugs either direct (muscarinic agonists) or indirect (accumulation of acetylcholine) induces in this model a characteristic "fingerprint" pattern by modifying the regional glucose metabolism.
Male Wistar rats (150-200 g) are used. Drugs are administered at various doses and by different routes (i.v., p.o., i.p.) to animals. [14C]-2-deoxyglucose (125 μC/kg) is injected 45 min. before the animals are sacrificed. The brains are immediately excised, frozen at -80° C. and subsequently cut in slices with a thickness of 20 μm. The optical densities of the radiographic images are measured according to a modification of Sokoloff et al.

[5] = system: levels of ACh in different regions of rat brain; experiment: Acetylcholine levels in different rat brain regions; type: in vivo; conditions: p.o.
Description: Acetylcholine levels in different rat brain regions
The animals are killed by microwave irradiation focused on the head (6 kW operating power 2450 Mhz exposure 1.7 sec., Pueschner Mikrowellen-Energietechnik, Bremen). The brains are removed dissected according to Glowinski and Iversen (1966) and stored at -70° C. until analysis. The brain parts are homogenized in 0.1M perchloric acid containing internal deuterated standards of ACh-d4 and Ch(choline)-d4. After centrifugation, endogenous ACh and Ch together with their deuterated variants are extracted with dipicrylamine (2,2',4,4',6,6'-hexanitrodiphenylamine) in dichlormethane as ion pairs. The Ch moities are derivatized with propionyl chloride and the resulting mixture of ACh and propyl choline derivatives are demethylated with sodiumbenzenethiolate and analyzed by mass-fragmentography according to Jenden et al. Anal. Biochem., 55, 438-448, (1973).

[6] = In vitro skin diffusion test (penetration through the skin); type: in vitro ADME; conditions: rat skin
Description: The penetration through the skin of the compounds for administration according to the invention may be observed in standard in vitro or in vivo tests.
One in vitro test is the well known diffusion test which may be effected according to the principles set out in GB 2098865 A and by T. J. Franz in J. Invest. Dermatol. (1975) 64, 194-195. Solutions containing the active agent in unlabelled or radioactively labelled form are applied to one side of isolated pieces of intact human skin or hairless rat skin about 2 cm^2 in area. The other side of the skin is in contact with physiological saline. The amount of active agent in the saline is measured in conventional manner, e.g. by HPLC or spectrophotometric techniques, or by determining the radioactivity.
In this test using rat skin the following penetration rates, for example, have been found: […]

T1 sequence (P37136 32-614): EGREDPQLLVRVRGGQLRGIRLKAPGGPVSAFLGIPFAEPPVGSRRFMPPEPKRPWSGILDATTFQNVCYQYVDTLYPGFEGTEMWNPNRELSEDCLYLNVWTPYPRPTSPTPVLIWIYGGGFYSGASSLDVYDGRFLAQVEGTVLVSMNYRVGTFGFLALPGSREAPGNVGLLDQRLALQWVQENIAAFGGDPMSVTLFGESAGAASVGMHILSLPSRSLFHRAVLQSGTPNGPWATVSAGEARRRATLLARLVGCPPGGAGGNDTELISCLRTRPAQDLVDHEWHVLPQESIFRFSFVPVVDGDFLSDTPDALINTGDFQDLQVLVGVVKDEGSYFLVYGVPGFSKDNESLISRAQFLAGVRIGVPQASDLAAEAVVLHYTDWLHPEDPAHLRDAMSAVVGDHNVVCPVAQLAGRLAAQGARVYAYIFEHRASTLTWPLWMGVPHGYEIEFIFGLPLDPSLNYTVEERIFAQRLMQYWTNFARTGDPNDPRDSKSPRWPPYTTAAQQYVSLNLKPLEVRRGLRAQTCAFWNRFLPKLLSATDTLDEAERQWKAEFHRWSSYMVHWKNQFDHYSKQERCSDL

SMILES	activity in the evoked 3H-ACh release model [1]	AChE inhibition in vitro, comparison in words [2]	dopamine metabolism in striatum [3]	changes in DOG utilisation in various rat brain regions [4]	influence on ACh levels in rat brain, comparison [5]	antagonism of the inhibitory effect by atropine [1]	inhibition at 100 µM ([1]; Rattus norvegicus, 3 h, 100 μM, read-out: inhibition of electrically evoked 3H-ACh release from hippocampal slices) [%]	penetration rate [6] [%]
CCN(C)C(=O)Oc1cccc([C@@H](C)N(C)C)c1 [Compound B, reference compound]	inactive	significantly less active	increased	significant changes in DOG utilisation	significantly weaker than that induced by racemate C			
CCN(C)C(=O)Oc1cccc(C(C)N(C)C)c1 (racemic) [Racemate C, (±)-N-ethyl-3-[(1-dimethylamino)ethyl]-N-methyl-phenyl-carbamate]			increased		significantly weaker than that induced by compound A	can be antagonized by atropine	~25	
CCN(C)C(=O)Oc1cccc([C@H](C)N(C)C)c1 [Compound of formula I in free base form, (S)-N-ethyl-3-[(1-dimethylamino)ethyl]-N-methyl-phenyl-carbamate]								28.0±8.2
